In patent publication US20040259772A1, “Use of a histone deacetylase inhibitor to increase the entry of an adenoviral agent into a cell” (priority 2001, published 2004):

How the values were obtained:
αv integrin = assay: RT-PCR analysis of αv integrin RNA levels in cultured cells; format: cell-based, human
Procedure: (§1) RT-PCR for CAR and integrin αv was performed using total RNA extracted with the RNeasy Mini Kit (Qiagen, Valencia, Calif.). Single-stranded oligo(dt)-primed cDNA was generated from 1 μg of RNA in a 20 μl reaction using MMLV reverse transcriptase (Life Technologies, Eggenstein, Germany).
(§2) The amplification reaction was carried out with 1 μg of the cDNA product for 30 cycles, and each cycle consisted of 94° C for 20 sec, 64° C. for 30 sec and 72° C. for 1 min, followed by a final 10 min elongation at 72° C. Comparability of RNA quantities was assured using β-actin as an internal standard. Oligonulceotide primers for human β-actin RNA amplification were: […]

[1] = tested on: G-CSF-mobilized peripheral blood mononuclear cells (PBMNCs); assay: Adenoviral β-galactosidase transgene expression in PBMNCs; format: cell-based; conditions: pre-treated 0.1 ng/ml for 24 hr, moi=10, incubation less than 1 hr
Source text: (§3) […] […] Adenovirus transgene expression was compared using the β-Gal Staining Kit (Invitrogen, Carlsbad, Calif.) and β-gal positive cells were counted from three non-overlapping fields.

CAR = CAR expression in PBMNCs of a Phase I depsipeptide patient; format: in vivo, human
Source text: (§4) In addition to the above, PBMNCs were obtained from a patient enrolled in a Phase I depsipeptide (FR901228) study (concentrations used with cultured cells are within the range administered to patients) and examined.

acetylated histone H3 [2] = assay: Acetylated histone H3 in PBMNCs of a Phase I depsipeptide patient; format: in vivo, human; conditions: after administration of depsipeptide
Source text: as §4

[3] = tested on: human cancer cell lines FTC 236, SW-1736, SW620, A498, MCF7, HepG2; assay: Transduction efficiency by Ad-βgal (β-gal positive cells), six cancer cell lines; format: cell-based; conditions: 72 hrs with 1 ng/ml depsipeptide
Procedure: A total of 6 human cancer cell lines were tested: a follicular thyroid carcinoma (FTC 236) (Demeure et al., World J. Surg. 16:770-776 (1992)); an anaplastic thyroid carcinoma (SW-1736) (Ain et al., J. Clin. Endocrinol. Metab. 81:3650-3653 (1996)); a colon carcinoma (SW620) (Leibovitz et al., Cancer Res. 36:4562-4569 (1976)); a renal cell carcinoma (A498) (Giard et al., J. Natl. Cancer Inst. 51:1417-1423 (1973)); a breast carcinoma (MCF7) (Soule et al., J. Natl. Cancer Inst. 51:1409-1413 (1973)); and a hepatocarcinoma (HepG2) (Knowles et al., Science 209:497-499 (1980)).
The Ad5.CMV-LacZ is an E1 and E3 gene deleted replication defective type 5 adenovirus obtained from Qbiogene (Carlsbad, Calif.). It was grown in 293A cells according to protocols supplied by the company. The AdCMVβgal virus was purified and the titer was determined by the TCID50 assay as described by the manufacturer.
(§5) 10^4 untreated cells or 10^4 cells pre-treated with 1 ng/ml depsipeptide for 72 hrs were plated on a round cover glass (DAIGGER, Vernon Hills, Ill.) in 24 well plates. Cells were transduced with 100 MOI of Ad-βgal in medium without serum for 1 hr and maintained with serum-containing medium for 48 hrs after transduction. Adenovirus transgene expression was compared using the β-Gal Staining Kit (Invitrogen, Carlsbad, Calif.) and β-gal positive cells were counted from three non-overlapping fields.

[4] = tested on: coxsackie-adenovirus receptor (CAR); assay: RT-PCR analysis of CAR RNA levels in cultured cells; format: cell-based, human; conditions: for level of CAR (RT-PCR), compared with K562: less than 3 ng/ml; for level of CAR (RT-PCR): HUVEC
Procedure: as §1, with “Germany). Oligonucleotide primers used for analysis of human CAR (Bergelson et al., supra) and αv integrin (Suzuki et al., Proc. Natl. Acad. Sci. U.S.A. 83:8614-8618 (1986)) RNA expression were:” for “Germany).”
as §2, with “These primers generated products that were 631 bp (CAR) and 490 bp (αv integrin) in length. The” for “The”

acetylated histone H3 [5] = assay: Western blot analysis of acetylated histone H3; format: cell-based, human
Procedure: Supernatants were collected as nuclear extracts. […] The membrane was incubated for 30 min with either a rabbit polyclonal antibody against acetylated histone H3 (Upstate Biotechnology, Lake Placid, N.Y.) or a rabbit polyclonal antibody against histone H3 (Upstate Biotechnology, Lake Placid, N.Y.) diluted 1:2000 in 5% milk. After washing, anti-rabbit Ig horseradish peroxidase-linked secondary antibody (Amersham Pharmacia Biotech, Piscataway, N.J.) was added and incubated for 30 min. After washing, the membrane was developed in ECL™ Western blotting detection reagents (Amersham Pharmacia Biotech, Piscataway, N.J.).

[6] = tested on: human umbilical vein endothelial cells (HUVEC); assay: Adenoviral β-galactosidase transgene expression in HUVEC; format: cell-based; conditions: HUVEC treated with 0.3 ng/ml for 48 hr prior to adenoviral infection
Source text: as §5, with “10^4 untreated cells or 10^4 cells pre-treated with 1 ng/ml depsipeptide for 72 hrs were plated on a round cover glass (DAIGGER, Vernon Hills, Ill.) in 24 well plates.” left out

[7] = tested on: A498, MCF7 and HepG2 cancerous cell lines; assay: β-galactosidase expression upon AdCMVβgal infection, cancerous cell lines (Example 4); format: cell-based, human
Procedure: as §5
A498, MCF7 and HepG2 cancerous cell lines and normal cells (Clonetics, Walkersville, Md.) were treated with FR901228. […] Induction of CAR was only observed in normal cells at 10-20 ng/ml FR901228 and then only a two-fold increase in CAR was observed.

K562 cells = assay: Adenoviral β-galactosidase transgene expression in K562; format: cell-based, human; conditions: pre-treated 1 ng/ml for 24 hr, moi=50, incubation less than 1 hr
Source text: as §3

[8] = tested on: CD34+ selected peripheral blood stem cells (PBSCs); assay: Adenoviral β-galactosidase transgene expression in CD34+ PBSCs; format: cell-based; conditions: pre-treated 0.1 ng/ml for 24 hr, moi=10, incubation less than 1 hr
Source text: as §3

histone H3 = assay: Western blot analysis of total histone H3; format: cell-based, human
Procedure: Supernatants were collected as nuclear extracts. Ten […] of protein were separated on an 11% SDS-PAGE gel, and electroblotting to Immobilon™-P transfer membrane (Millipore, Bedford, Mass.) was performed. The membrane was incubated for 30 min with either a rabbit polyclonal antibody against acetylated histone H3 (Upstate Biotechnology, Lake Placid, N.Y.) or a rabbit polyclonal antibody against histone H3 (Upstate Biotechnology, Lake Placid, N.Y.) diluted 1:2000 in 5% milk. After washing, anti-rabbit Ig horseradish peroxidase-linked secondary antibody (Amersham Pharmacia Biotech, Piscataway, N.J.) was added and incubated for 30 min. After washing, the membrane was developed in ECL™ Western blotting detection reagents (Amersham Pharmacia Biotech, Piscataway, N.J.).

[9] = 1 ng/ml depsipeptide for 72 hrs, all six human cancer cell lines
[10] = A498, MCF7, HepG2 cancerous cells, 1 ng/ml

C/C=C1\NC(=O)[C@H]2CSSCC/C=C/[C@H](CC(=O)N[C@H](C(C)C)C(=O)N2)OC(=O)[C@H](C(C)C)NC1=O [FR901228]
expression of endogenous αv integrin (αv integrin; [9]): increased expression | levels of αv integrins (αv integrin; [10]): increased from undetectable to a level similar to that found in untreated normal cells | levels of αv integrins (printed 'o integrins') (αv integrin; normal cells treated in the same manner): little increase | cells expressing β-galactosidase [1]: more than 80% | CAR expression in patient PBMNCs (CAR; after completion of a 4 hr depsipeptide infusion): increase | CAR expression in patient PBMNCs (CAR; at 24 hr of depsipeptide infusion): further increase | level of acetylated histone H3 in patient PBMNCs (acetylated histone H3 [2]): increased | cells expressing β-galactosidase ([3]; then adenovirus with CMV-β-galactosidase, six cancer cell lines): 72-88% | frequency of expression of the β-galactosidase transgene ([3]; all cell lines): marked increases | expression of endogenous CAR [4, 9]: increased expression | CAR expression [4, 10]: increased CAR expression in cancerous cells to levels higher than those found in normal cells | level of CAR (RT-PCR), compared with K562 ([4]; CD34+ selected PBSCs): Comparable levels of CAR | level of CAR (RT-PCR), compared with K562 ([4]; G-CSF-mobilized PBMNCs): Comparable levels of CAR | level of CAR (RT-PCR) ([4]; 0.3 ng/ml for 48 hr): increased the level of CAR significantly | increase in level of CAR (RT-PCR) ([4]; K562 cells, 1 ng/ml): about 3 fold | concentration at which induction of CAR was observed ([4]; normal cells (Clonetics)): 10 to 20 ng/mL | increase in CAR ([4]; normal cells, 10-20 ng/ml): two-fold | histone acetylation (acetylated histone H3 [5]; 1 ng/ml depsipeptide, cancer cell lines of Example 1): marked increase | level of acetylated histone H3 (acetylated histone H3 [5]; CD34+ PBSCs): increased the level of acetylated histone H3 substantially | level of acetylated histone H3 (acetylated histone H3 [5]; HUVEC): increased the level of acetylated histone H3 substantially | level of acetylated histone H3 (acetylated histone H3 [5]; K562 cells): increased the level of acetylated histone H3 substantially | histone acetylation (acetylated histone H3 [5]; cancerous cells, 1 ng/ml): increased histone acetylation | concentration required to increase histone acetylation (acetylated histone H3 [5]; normal cells, compared with cancerous cells): higher concentration | cells expressing the β-galactosidase transgene [6]: over 80% | cancerous cells expressing β-galactosidase ([7]; A498, MCF7, HepG2 following FR901228 treatment): 75-85% | increase in β-galactosidase expression upon infection ([7]; all cancerous cell lines (A498, MCF7, HepG2) following FR901228 treatment): 4-10 fold | cells expressing β-galactosidase (K562 cells): more than 80% | cells expressing β-galactosidase [8]: more than 80% | level of histone H3 (histone H3; HUVEC): not altering the level of histone H3 | total histone H3 levels (histone H3; K562 cells and CD34+ PBSCs): No significant change

CCCC(=O)[O-].[Na+] [sodium butyrate]
level of CAR (RT-PCR) ([4]; concentration not given): little effect

CC(/C=C/C(=O)NO)=C\[C@@H](C)C(=O)c1ccc(N(C)C)cc1 [trichostatin A]
level of CAR (RT-PCR) ([4]; concentration not given): increased the level of CAR slightly
